Series [1] relates to P-gp. Put plainly: PET brain time-activity curves (SUV), baseline and after tariquidar P-gp block. In kind it is in vivo, Sprague–Dawley rats. From the text:
(§1) Following cannulation of the femoral vein, animals were positioned in pairs in a double LSO/LYSO layer high-resolution research tomograph (CTI/Siemens, Knoxville, TN, USA). First, for attenuation and scatter correction purposes, a transmission scan was acquired using a 740-MBq two-dimensional fan-collimated ^137Cs (662 keV) moving point source. Next, a dynamic emission scan was acquired immediately following administration of 17.1 ± 2.1 MBq (mean ± SD) ^11C]phenytoin to each rat. Two animals had one single ^11C]phenytoin scan; two animals had two consecutive scans, and two had three consecutive scans. Finally, all animals underwent an ^18F]FDG scan before being euthanized. Tariquidar, 15 mg·kg^−1, was used to completely block P-gp, while probenecid, 150 mg·kg^−1, was used to inhibit multi-resistant protein (MRP) efflux proteins. Tariquidar and probenecid were administered i.v. 20 min prior to the scan start as a 10-min infusion. All animals, except one, were scanned without any treatment prior to the first ^11C]phenytoin scan. Of the animals that had two scans, one underwent two post-tariquidar scans (animal 4, Table 1). […] Animals that underwent three consecutive scans had one baseline, one post probenecid and one post-tariquidar scan. During each scan, emission data were acquired for 60 min in list mode and rebinned into the following frame sequence: 7 × 10, 1 × 20, 3 × 30, 2 × 60, 2 × 150, 2 × 300 and 4 × 600 s. Following corrections for decay, dead time, attenuation, random and scatter, scans were reconstructed using a 3D ordinary Poisson ordered subsets expectation maximization algorithm. […] PET image data were analyzed using the freely available software package Amide 0.9 [31]. A magnetic resonance (MR)-based rat brain atlas was used to define five regions of interest (ROIs): the hippocampus, occipital cortex, parietal cortex, caudate putamen and cerebellum. The MR atlas including all ROIs was aligned visually with the summed ^18F]FDG image for each rat. ROIs were then projected onto all frames of all ^11C]phenytoin scans, resulting in ^11C]phenytoin time-activity curves for each scan and rat.
(§2) During each [^11C]phenytoin scan, arterial blood samples of 0.1 mL were taken at 20 and 40 s and at 1, 2, 5, 15, 30 and 60 min after [^11C]phenytoin injection. For animals that underwent three scans, the amount of blood withdrawn was reduced by replacing the two samples at 15 and 30 min with a single 20-min sample. Plasma was obtained by centrifugation at 4,000 rpm for 5 min at 4°C, and activity in both plasma and whole blood was measured in an automated 1282 Compugamma CS Universal Gamma Counter (LKB Wallac, Turku, Finland), cross-calibrated against the PET scanner. Standardized uptake values (SUVs) as a function of time were derived by normalizing measured radioactivity concentrations against injected dose and body weight.

The subject of series [2] is P-gp. Put plainly: PET Logan graphical analysis of brain VT, baseline and after tariquidar P-gp block. The settings on record: for Kp: Sprague-Dawley; for Kp / Increase in cerebral distribution volume (VT) after tariquidar compared with baseline: rat; for P-gp substrate character: conclusion from tariquidar predosing studies in rats; for Increase in cerebral distribution volume (VT) after tariquidar compared with baseline: tariquidar 15 mg·kg^−1 predosing. In kind it is in vivo, Sprague–Dawley rats.
Description: as §1, §2
To obtain a model independent estimate of the brain-to-plasma partition coefficient, often referred to as volume of distribution, Logan graphical analysis was used. Before Logan analysis, both brain and plasma concentrations were corrected for labeled metabolites. As metabolite fractions were not measured at each plasma or mid-frame time point, linear regression was used to estimate the fraction of intact ^11C]phenytoin at each time point.

Details of series [3]: method as in PMID 98619. Particulars: dosage of 14 mg/kg, rhesus monkeys; cited from earlier work.

“Also recorded” adds a separate entry of the source. Where two headings read alike, the source gives them in different places.

`O=C1N[11C](=O)NC1(c1ccccc1)c1ccccc1` [[^11C]phenytoin]: the entries for the “Brain SUV at 60 min (corrected for metabolites)” value in the series with P-gp [1] (baseline scans) and with P-gp [1] (post-tariquidar scans) were “around 0.2” and about 0.3, respectively. The “Maximum brain SUV” value in the series on P-gp [1] (baseline scans) is on record as “around 0.8”; in the series on P-gp [1] (post-tariquidar scans), about 0.9. Moreover, the “Time of maximum brain concentration after bolus injection” value in the series on P-gp [1] (rats) is given as “approximately 5 min”. Moreover, the “Increase in brain SUV at 10 to 60 min after tariquidar” value in the series on P-gp [1] (tariquidar 15 mg·kg^−1, rat, on average) is listed as “about 50%”. Also, the Kp stood at 0.98 ± 0.08 in the series on P-gp [2] (caudate putamen (relative to plasma), intravenous, baseline, n = 5, metabolite-corrected plasma input and brain data, read-out: VT (Logan), caudate putamen); 1.48 ± 0.12 in the series with P-gp [2] (caudate putamen (relative to plasma), iv, with tariquidar 15 mg/kg i.v., after tariquidar 15 mg·kg^−1 i.v., n = 5, metabolite-corrected, read-out: VT (Logan), caudate putamen); 1.02 ± 0.08 in the series with P-gp [2] (cerebellum (relative to plasma), intravenous, baseline, n = 5, metabolite-corrected plasma input and brain data, read-out: VT (Logan), cerebellum); 1.48 ± 0.09 with P-gp [2] (cerebellum (relative to plasma), iv, with tariquidar 15 mg/kg i.v., after tariquidar 15 mg·kg^−1 i.v., n = 5, metabolite-corrected, read-out: VT (Logan), cerebellum); 0.96 ± 0.09 with P-gp [2] (hippocampus (relative to plasma), intravenous, baseline, n = 5, metabolite-corrected plasma input and brain data, read-out: VT (Logan), hippocampus); 1.43 ± 0.07 in the series with P-gp [2] (hippocampus (relative to plasma), iv, with tariquidar 15 mg/kg i.v., after tariquidar 15 mg·kg^−1 i.v., n = 5, metabolite-corrected, read-out: VT (Logan), hippocampus). In addition, the Kp is 0.91 ± 0.06 with P-gp [2] (occipital cortex (relative to plasma), intravenous, baseline, n = 5, metabolite-corrected plasma input and brain data, read-out: VT (Logan), occipital cortex); 1.3 ± 0.11 in the series on P-gp [2] (occipital cortex (relative to plasma), iv, with tariquidar 15 mg/kg i.v., after tariquidar 15 mg·kg^−1 i.v., n = 5, metabolite-corrected, read-out: VT (Logan), occipital cortex); 0.91 ± 0.08 in the series on P-gp [2] (parietal cortex (relative to plasma), intravenous, baseline, n = 5, metabolite-corrected plasma input and brain data, read-out: VT (Logan), parietal cortex); 1.35 ± 0.11 with P-gp [2] (parietal cortex (relative to plasma), iv, with tariquidar 15 mg/kg i.v., after tariquidar 15 mg·kg^−1 i.v., n = 5, metabolite-corrected, read-out: VT (Logan), parietal cortex). In addition, the figures for the P-gp substrate character result with P-gp [2] and in the series with P-gp [2] (listed as 11C]phenytoin) were “rather weak P-gp substrate; also recorded: moderate P-gp substrate” and “rather moderate affinity for P-gp”, respectively. Also, the “Increase in cerebral distribution volume (VT) after tariquidar compared with baseline” value with P-gp [2] is 45%; in the series on P-gp [2] (listed as 11C]phenytoin), “about 45%”. Besides, the Brain uptake entry in series [3] is given as “high brain uptake”.
